Laboratory results published in patent US20090131416A1, “SUBSTITUTED PYRAZINYL AMIDE COMPOUNDS AS MODULATORS OF THE HISTAMINE H3 RECEPTOR” (priority 2007, published 2009).

Key:
[1] = target: T1, cloned human H3 receptors (Homo sapiens, UniProt Q9Y5N1); experiment: H3 Receptor Binding (Human); details: cloned human H3 receptors stably expressed in SK-N-MC cells; average of results
T1 construct: expressed in transfected cells; host or cells: SK-N-MC cells
Method: Binding of compounds to the cloned human H3 receptors, stably expressed in SK-N-MC cells, was performed as described by Barbier, A. J. et al. (Br. J. Pharmacol. 2004, 143(5), 649-661). Data for compounds tested in this assay are presented in Table 1, as an average of results obtained.

[2] = target: T2, rat H3 receptor (rat brain membranes) (Rattus norvegicus, UniProt Q9QYN8); experiment: H3 Receptor Binding (Rat); details: rat brain membranes without cerebellum; 0.8 nM N-[3H]-α-methylhistamine; 60 min at 25° C.
T2 construct: A rat brain without cerebellum (Zivic Laboratories Inc., Pittsburgh, Pa.) was homogenized; tissue Zivic Laboratories Inc; host or cells: rat brain without cerebellum, membranes
Method: A rat brain without cerebellum (Zivic Laboratories Inc., Pittsburgh, Pa.) was homogenized in 50 mM Tris-HCl/5 mM EDTA and centrifuged at 1,000 rpm for 5 min. The supernatant was removed and recentrifuged at 15,000 rpm for 30 min. Pellets were rehomogenized in 50 mM Tris/5 mM EDTA (pH 7.4). Membranes were incubated with 0.8 nM N-[^3H]-α-methylhistamine plus/minus test compounds for 60 min at 25° C. and harvested by rapid filtration over GF/C glass fiber filters (pretreated with 0.3% polyethylenimine) followed by four washes with buffer. Nonspecific binding was defined in the presence of 100 μM histamine. Inhibitory concentration (responsible for 50% inhibition of maximal effect, IC50) values were determined by a single site curve-fitting program (GraphPad, San Diego, Calif.) and converted to Ki values based on a N-[^3H]-α-methylhistamine dissociation constant (Kd) of 0.8 nM. The following results were obtained: Example 2, 34 nM; Example 3, 33 nM; Example 4,18 nM; Example 5, 9.2 nM.

rat H3 receptor = target: T3, rat H3 receptor (Rattus norvegicus, UniProt Q9QYN8); experiment: Cyclic AMP Accumulation (rat H3); type: cell-based; details: SK-N-MC cells expressing reporter construct and rat H3 receptor; read-out: Rat pA2 (converted)
T3 construct: expressed in transfected cells; host or cells: SK-N-MC cell sublines
Source text: (§1) Sublines of SK-N-MC cells were created that expressed a reporter construct and either the human or rat H3 receptor. The pA2 values were obtained as described by Barbier et al. (2004).

human H3 receptor = target: T4, human H3 receptor (Homo sapiens, UniProt Q9Y5N1); experiment: Cyclic AMP Accumulation (human H3); type: cell-based; details: SK-N-MC cells expressing reporter construct and human H3 receptor; read-out: Human pA2 (converted)
T4 construct: expressed in transfected cells; host or cells: SK-N-MC cell sublines
Source text: as §1

T1 sequence (Q9Y5N1 whole entry): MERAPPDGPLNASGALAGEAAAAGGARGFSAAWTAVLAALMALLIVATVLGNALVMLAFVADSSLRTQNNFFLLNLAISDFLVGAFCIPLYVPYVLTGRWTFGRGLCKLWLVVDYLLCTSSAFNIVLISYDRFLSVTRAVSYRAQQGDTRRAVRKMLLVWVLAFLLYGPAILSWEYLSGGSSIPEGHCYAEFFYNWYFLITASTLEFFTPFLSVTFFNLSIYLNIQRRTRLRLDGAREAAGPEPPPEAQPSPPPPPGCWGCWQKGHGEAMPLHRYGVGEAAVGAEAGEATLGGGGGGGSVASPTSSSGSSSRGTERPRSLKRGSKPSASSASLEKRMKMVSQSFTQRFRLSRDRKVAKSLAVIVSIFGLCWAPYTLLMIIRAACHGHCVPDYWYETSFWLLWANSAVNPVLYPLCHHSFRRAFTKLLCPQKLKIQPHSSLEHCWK
T4 sequence (Q9Y5N1 whole entry): as above
T2 sequence (Q9QYN8 whole entry): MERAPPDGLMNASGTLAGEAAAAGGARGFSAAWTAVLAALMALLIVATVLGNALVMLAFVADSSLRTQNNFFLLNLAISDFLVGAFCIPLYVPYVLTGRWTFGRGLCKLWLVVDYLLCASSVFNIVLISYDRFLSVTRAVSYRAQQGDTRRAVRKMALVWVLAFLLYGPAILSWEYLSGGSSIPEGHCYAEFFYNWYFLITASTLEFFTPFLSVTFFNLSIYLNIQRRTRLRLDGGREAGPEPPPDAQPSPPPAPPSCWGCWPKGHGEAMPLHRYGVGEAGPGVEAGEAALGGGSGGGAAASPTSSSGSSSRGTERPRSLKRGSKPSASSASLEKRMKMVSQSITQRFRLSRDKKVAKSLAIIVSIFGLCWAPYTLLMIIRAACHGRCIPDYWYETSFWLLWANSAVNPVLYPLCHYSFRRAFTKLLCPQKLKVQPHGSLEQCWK
T3 sequence (Q9QYN8 whole entry): as above

Compound	Ki [1] [nM]	Ki [2] [nM]	Kb (rat H3 receptor) [nM]	Kb (human H3 receptor) [nM]
O=C(c1cnc(Oc2ccc(Cl)cc2)cn1)N1CCN(C2CCC2)CC1 [Example 8, [5-(4-Chloro-phenoxy)-pyrazin-2-yl]-(4-cyclobutyl-piperazin-1-yl)-methanone]	38			
O=C(c1cnc(Oc2ccccc2)cn1)N1CCCN(C2CCC2)CC1 [Example 2, (4-Cyclobutyl-[1,4]diazepan-1-yl)-(5-phenoxy-pyrazin-2-yl)-methanone]	2.9	34		
O=C(c1cnc(Oc2ccccc2)cn1)N1CCN(C2CCC2)CC1 [Example 7, (4-Cyclobutyl-piperazin-1-yl)-(5-phenoxy-pyrazin-2-yl)-methanone]	36			
O=C(c1cnc(Oc2ccc(F)cc2)cn1)N1CCN(C2CCC2)CC1 [Example 6, (4-Cyclobutyl-piperazin-1-yl)-[5-(4-fluoro-phenoxy)-pyrazin-2-yl]-methanone]	19			
N#Cc1cccc(Oc2cnc(C(=O)N3CCCN(C4CCC4)CC3)cn2)c1 [Example 5, 3-[5-(4-Cyclobutyl-[1,4]diazepane-1-carbonyl)-pyrazin-2-yloxy]-benzonitrile]	1.5	9.2		
O=C(c1cnc(Oc2ccc(Cl)cc2)cn1)N1CCCN(C2CCC2)CC1 [Example 3, [5-(4-Chloro-phenoxy)-pyrazin-2-yl]-(4-cyclobutyl-[1,4]diazepan-1-yl)-methanone]	3.7	33	12.6	1.2
O=C(c1cnc(Oc2cccc(F)c2)cn1)N1CCCN(C2CCC2)CC1 [Example 4, (4-Cyclobutyl-[1,4]diazepan-1-yl)-[5-(3-fluoro-phenoxy)-pyrazin-2-yl]-methanone]	2.6	18	6.92	0.537
O=C(c1cnc(Oc2ccc(F)cc2)cn1)N1CCCN(C2CCC2)CC1 [Example 1, (4-Cyclobutyl-[1,4]diazepan-1-yl)-[5-(4-fluoro-phenoxy)-pyrazin-2-yl]-methanone]	2.4		13.5	0.871

Next, values leading:

Ki [1] [nM]	Ki [2] [nM]	Kb (rat H3 receptor) [nM]	Kb (human H3 receptor) [nM]	Compound
28				N#Cc1cccc(Oc2cnc(C(=O)N3CCN(C4CCC4)CC3)cn2)c1 [Example 10, 3-[5-(4-Cyclobutyl-piperazine-1-carbonyl)-pyrazin-2-yloxy]-benzonitrile]
37				O=C(c1cnc(Oc2cccc(F)c2)cn1)N1CCN(C2CCC2)CC1 [Example 9, (4-Cyclobutyl-piperazin-1-yl)-[5-(3-fluoro-phenoxy)-pyrazin-2-yl]-methanone]
51				O=C(c1cnc(OC2CCCCC2)cn1)N1CCN(C2CCC2)CC1 [Example 12, (4-Cyclobutyl-piperazin-1-yl)-(5-cyclohexyloxy-pyrazin-2-yl)-methanone]
3.2		9.55	0.525	O=C(c1cnc(OC2CCCCC2)cn1)N1CCCN(C2CCC2)CC1 [Example 11, (4-Cyclobutyl-[1,4]diazepan-1-yl)-(5-cyclohexyloxy-pyrazin-2-yl)-methanone]
